The test system of experiment [1] is RS4;11 and SEM cells. Nature of the experiment: MTT viability with CP in presence of pan-caspase inhibitor, 48 h. It is filed as cell-based, human. To be noted: z-VAD.fmk 100 μM with CP 2.5 μM and 5 μM. Here is the method: FIGURE 2 CP induces caspase-dependent apoptosis without mitochondria involvement (A) Assessment of mitochondrial membrane potential (ΔΨmt) after treatment of RS4;11 and SEM cells with CP (2.5 μM) for the indicated times. Cells were stained with the fluorescent probe JC-1. Data are represented as mean ± S.E.M. of three independent experiments. (B) Flow cytometric analysis of RS4;11 and SEM cells treated with CP (2.5 μM) for 24 h showing cytochrome c labeled with a monoclonal antibody conjugated to FITC. Representative image of three experiments with similar results. (C) Cells were incubated with CP 2.5 μM and 5 μM in the presence or absence of the pan-caspase inhibitor z-VAD.fmk (100 μM). Cell viability was determined after 48 h by MTT assay. Data are represented as mean ± S.E.M. of three independent experiments performed in triplicate. *p<0.01 vs CP alone. (D) Western blot analysis of Bcl-2, cleaved caspase-12, caspase-9, cleaved caspase-7, caspase-3 and PARP after treatment of SEM and RS4;11 cells with CP (2.5 μM) for the indicated times. To confirm equal protein loading, each membrane was stripped and reprobed with anti-β-actin antibody.
We therefore evaluated whether the inhibition of caspases with the pan-caspase inhibitor z-VAD.fmk would prevent cell death.

For another experiment, the system named is SEM cells. Nature of the experiment: Combined drugs analysis, MTT 48 h, Chou and Talalay. To be noted: Homo sapiens. It is filed as cell-based. As to the method: (§1) SEM and RS4;11 cell lines were exposed to dexamethasone (Dex), daunorubicine (Dauno), cytarabine (Ara-C) and vincristine (Vcr) in the presence or absence of CP, at fixed combination ratios.
(§2) To test potential synergistic, additive, or antagonistic effects of the combination of CP and drugs commonly used in B-ALL treatment, we performed MTT experiments as follows.
(§3) SEM, and RS4;11 cells were treated for 48 hours with one of the most used chemotherapeutic agents: cytarabine (Aractyn, Pfizer), daunorubicin (Pfizer), vincristine (Pfizer), or dexamethasone (Sigma-Aldrich). CP was also added to each drug solution, at fixed combination ratios. Cell viability was determined after 48 hours of treatment by MTT test as described above. To determine the synergistic, additive, or antagonistic effects of the drug combinations, we used CalcuSyn software (version 2.0, Biosoft, Cambridge, United Kingdom) based on the method of the combination index (CI) described by Chou and Talalay. Synergy, additivity and antagonism were defined by a CI<1, CI=1, or CI>1, respectively.

The next experiment relates to RS4;11 cells. Described as above. The format is cell-based. To be noted: Homo sapiens. Here is the method: as §1, §2, §3
The subject of experiment [2] is RS4;11 and SEM cells. Nature of the experiment: Annexin-V/PI assay with CP in presence of cycloheximide, 12 h. To be noted: CHX 2 μg/ml with CP 2.5 μM. It is filed as cell-based, human. Here is the method:
To investigate if proteasome inhibition and ER stress could be responsible for CP-induced cell death, we assayed apoptosis and ER stress markers in the presence of cycloheximide (CHX), an inhibitor of protein synthesis that antagonizes ER-stress agents. The inhibition of protein synthesis reduced the accumulation of unfolded proteins in the ER and therefore ER-stress induced apoptosis.
Furthermore, CHX induced a remarkable reduction of GRP78 and CHOP expression, induced after 12 h of treatment with CP, when CHOP and GRP78 were highly expressed (Figure 5, panel C).
FIGURE 5 CP induces ER stress mediated apoptosis SEM (A) and RS4;11 (B) cells were incubated with CP (2.5 μM) in the presence or absence of cycloheximide (CHX) for 12 h, at the concentration of 2 μg/ml. Cells were analyzed by flow cytometry after double staining with Annexin-V-FITC and PI. Data are represented as mean ± S.E.M of three independent experiments. *p<0.05. (B) Western blot analysis showing the expression of GRP78 and CHOP after treatment of RS4;11 and SEM cells with CP (2.5 μM) for 12 h in the presence or absence of CHX (2 μg/ml).

The test system of experiment [3] is human leukemia cell lines. Nature of the experiment: MTT growth inhibition, panel of twelve leukemia cell lines, 72 h. To be noted: all cell lines, same experimental conditions as CP, data not shown. It is filed as cell-based. Here is the method:
[Cu(thp)4][PF6] (CP) was evaluated for its growth inhibition activity on a panel of twelve different human leukemia cell lines (five B-acute lymphoblastic leukemia, three T-acute lymphoblastic leukemia, three acute myeloid leukemia and one chronic myeloid leukemia). Cells were treated for 72 h with CP and cell viability was evaluated by MTT test. […] This abnormal high expression of proteasomal proteins and mRNA seem to be correlated to the hyperproliferation of these cancer cells and to the sensitivity towards proteasome inhibitors.
The human leukemia cell lines RS 4;11, SEM, REH, RCH-ACV, MHH-CALL2, Jurkat, CCRF-CEM, HSB2, HL-60, K562, THP-1, MV4;11 were purchased from the American Type Culture Collection. Cells were cultured in RPMI 1640 (Life Technologies, Italy) supplemented with 10% fetal bovine serum (FBS), glutamine (2 mM; Life Technologies, Italy), penicillin (100 U/ml; Life Technologies, Italy) and streptomycin (100 μg/ml; Life Technologies, Italy), and maintained at 37°C in a humidified atmosphere with 5% CO2. The cytotoxic activity of CP was determined using a standard 3-[4,5-dimethylthiazol-2-yl]-2,5-diphenyltetrazodium bromide (MTT) based colorimetric assay (Sigma-Aldrich, Italy). Briefly, cells were seeded at a density of 2×10^4 cells/well in 96-well microtiter plates. After 24 h, cells were exposed to the test compound. After different times, cell survival was determined by the addition of an MTT solution as previously described.

The mark [4] stands for this setting: SEM, MTT, drug alone or with CP at fixed molar ratio, mean ± SE, read-out: GI50.
[5] abbreviates: RS4;11, 48 h, MTT, drug alone or with CP at fixed molar ratio, mean ± SE, read-out: GI50.

Like-named read-outs stand apart in the source and are kept apart here. Some results are limits rather than exact numbers.

The values that follow come from publication PMC4171606, “A novel copper(I) complex induces ER-stress-mediated apoptosis and sensitizes B-acute lymphoblastic leukemia cells to chemotherapeutic agents” (Oncotarget, 2014).

The GI50 is the concentration giving 50% growth inhibition.

Regarding `CC(C)[C@H](NC(=O)OCc1ccccc1)C(=O)N[C@@H](C)C(=O)NC(CC(=O)O)C(=O)CF` (mixture of isomers) [z-VAD.fmk, N-[(benzyloxy)carbonyl]-L-Val-Ala-DL-Asp-fluoromethylketone], in the experiment on RS4;11 and SEM cells [1], the “cell viability of CP-treated cells” value is given as “significantly increased cell viability”.
On to `Nc1ccn([C@@H]2O[C@H](CO)[C@@H](O)[C@@H]2O)c(=O)n1` [AraC, cytarabine], for which the 50% growth inhibitory concentration (GI50) was 22.3 ± 1.8 nM with SEM cells (setting [4]) and 21 ± 7.1 nM in the experiment on RS4;11 cells (setting [5]).
With `C[C@@H]1C[C@@H]([C@H](O)CC2CC(=O)NC(=O)C2)C(=O)[C@@H](C)C1` [CHX, cycloheximide], the “protection from CP induced cell death” value with RS4;11 and SEM cells [2] is reported as “significant protection from CP induced cell death”.
Take `[Cl][Cu][Cl]` [CuCl2]: the “concentration giving only a slight reduction of cell viability” value in experiment [3] was over 250 µM.
The same measure, in the same setting: for `[Cl][Cu]` [CuCl] the value was over 250 µM.
Regarding `COc1cccc2c1C(=O)c1c(O)c3c(c(O)c1C2=O)C[C@@](O)(C(C)=O)C[C@@H]3O[C@H]1C[C@H](N)[C@H](O)[C@H](C)O1` [Dauno, daunorubicin], the GI50 in the experiment with SEM cells was determined as 96 ± 14.1 nM; in the experiment on RS4;11 cells (RS4-11, 48 h), 19.2 ± 1.9 nM.
Regarding `C[C@@H]1C[C@H]2[C@@H]3CCC4=CC(=O)C=C[C@]4(C)[C@@]3(F)[C@@H](O)C[C@]2(C)[C@@]1(O)C(=O)CO` [Dex, dexamethasone], the GI50 was determined as 643 ± 44.2 nM with SEM cells (setting [4]) and 0.12 ± 0.025 nM in the experiment with RS4;11 cells (setting [5]).
With `CC[C@]1(O)C[C@H]2CN(CCc3c([nH]c4ccccc34)[C@@](C(=O)OC)(c3cc4c(cc3OC)N(C=O)[C@H]3[C@@](O)(C(=O)OC)[C@H](OC(C)=O)[C@]5(CC)C=CCN6CC[C@]43[C@@H]65)C2)C1` [Vcr, vincristine], the results for the 50% growth inhibitory concentration (GI50) with SEM cells (setting [4]) and in the experiment on RS4;11 cells (setting [5]) were 13.1 ± 1.2 nM and 0.071 ± 0.042 nM, respectively.
